Assay [1] deals with recombinant human KRAS^G12D protein (Homo sapiens, UniProt P01116, G12D). The assay can be described thus: Temperature-dependent Fluorescence (TdF) KRAS^G12D protein binding assay. The note with it: 6 μM KRAS^G12D Protein, 10 μM compound, Sypro Orange; Kd calculated from fluorescent shift. Here is the method: The TdF assay was conducted in the 96-well-based real-time fluorescence plate reader (ABI 7500 or Roche LightCycler 480). Fluorescent dye Sypro Orange (Sigma) was used to monitor the protein folding-unfolding transition. Protein-compound binding was gauged by the shift in the unfolding transition temperature (ΔTm) acquired with and without compound. […] The sample plate was heated from 30° C. to 95° C. with a thermal ramping rate of […], taking a fluorescence reading every 0.4° C. using a CY3 channel matching the excitation and emission wavelengths of Sypro Orange (λ ex 470 nm; λ em 570 nm). Binding affinity (Kd value) was calculated based on the degree of fluorescent shift of the protein with and without compound.

The target of a further assay is Ba/F3_KRAS^G12D cells (Homo sapiens, UniProt P01116, G12D, cells depend on it). Put plainly: Ba/F3 KRAS^G12D cell proliferation assay (cell-titer Glo). The assay is classed as cell-based. The note with it: cell growth inhibition, treated with the compounds for 3 days, read-out: BaF3_KRAS^G12D IC50. The procedure:
Cells were seeded at a density of 5×10^3 per well into 96-well plate and incubated overnight. Serial diluted compounds were added to each well. Cells were treated with the compounds for 3 days, after which cell-titer Glo reagent (Promega #G7572) was used to assess cell proliferation. The luminescence signal was then collected on Tecan Spark plate reader. […] Cell growth inhibition of IC50 is calculated with the equation of Y=Bottom+(Top−Bottom)/(1+10^((LogIC50−X)*HillSlope))

Molecules are shown by their SMILES. Where only a bound is given, the exact number is not on record here.

Sequence of Ba/F3_KRAS^G12D cells (P01116 whole entry G12D): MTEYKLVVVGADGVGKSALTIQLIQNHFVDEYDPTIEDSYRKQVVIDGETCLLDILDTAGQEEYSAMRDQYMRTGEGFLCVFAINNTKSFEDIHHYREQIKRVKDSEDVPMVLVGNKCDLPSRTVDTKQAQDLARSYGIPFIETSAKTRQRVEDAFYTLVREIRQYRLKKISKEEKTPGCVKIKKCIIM
Sequence of recombinant human KRAS^G12D protein (P01116 1-188 isoform P01116-2 G12D): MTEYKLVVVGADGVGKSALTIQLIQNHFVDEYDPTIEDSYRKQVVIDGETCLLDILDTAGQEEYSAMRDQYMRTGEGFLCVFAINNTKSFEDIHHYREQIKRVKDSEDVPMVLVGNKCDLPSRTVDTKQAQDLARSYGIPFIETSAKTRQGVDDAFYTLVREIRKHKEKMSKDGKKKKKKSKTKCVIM

Turning to `O=c1cc2c(N3CC4CCC(C3)N4)nc(OCC34CCCN3CCC4)nc2cn1-c1cc(O)cc2ccccc12` [Compound 109], the dissociation constant Kd in assay [1] is more than 5000 nM. Besides, on Ba/F3_KRAS^G12D cells, the GI50 was more than 5000 nM.
Regarding `Clc1cccc2cccc(-c3nc(OCC45CCCN4CCC5)c4ccc(N5CCNCC5)nc4c3Br)c12` [Compound 83], the Kd in assay [1] was more than 5000 nM. For the same molecule, the GI50 on Ba/F3_KRAS^G12D cells was 500 to 5000 nM.
Take `Oc1cc(-c2ncc3c(N4CC5CCC(C4)N5)nc(OCC45CCCN4CCC5)nc3c2F)c2c(Cl)cccc2c1` [Compound 32]: the Kd in assay [1] is not above 500 nM. In addition, at Ba/F3_KRAS^G12D cells, the GI50 was less than 500 nM.
On to `Oc1cc(-c2cc3nc(N4CC5CCC(C4)N5)ccc3c(OC[C@@]34CCCN3C[C@H](F)C4)n2)c2ccccc2c1` [Compound 104], for which the Kd in assay [1] was more than 5000 nM. Further, on Ba/F3_KRAS^G12D cells, the GI50 is more than 5000 nM.
For `Fc1cc2c(N3CC4CCC(C3)N4)nc(OCC34CCCN3CCC4)nc2nc1-c1cccc2cccc(Cl)c12` [Compound 7], the dissociation constant Kd in assay [1] was more than 5000 nM. Also, the GI50 on Ba/F3_KRAS^G12D cells is more than 5000 nM.
With `CN1CCC[C@H]1Cn1c(=O)nc(N2CC3CCC(C2)N3)c2cnc(-c3cccc4cccc(Cl)c34)c(F)c21` [Compound 33], the Kd in assay [1] was more than 5000 nM. Also, the GI50 on Ba/F3_KRAS^G12D cells is more than 5000 nM.
In the case of `Oc1cc(-c2ncc3c(N4CC5CCC(C4)N5)nc(OCC45CCCN4CCC5)nc3c2F)c2ccccc2c1` [Compound 12], the Kd in assay [1] was not above 500 nM. The GI50 on Ba/F3_KRAS^G12D cells fell in the range of 500 to 5000 nM.
Taken in the same sequence, the figures for `Oc1cc(-c2cc3nc(OC[C@@]45CCCN4C[C@H](F)C5)nc(N4CC5CCC(C4)N5)c3nn2)c2ccccc2c1` [Compound 84] were 500 to 5000 nM and 500 to 5000 nM.
For the molecule `C[C@H]1CNCCN1c1nc(OCCN(C)C)c(-c2cccnc2C2CC2)c2nc(-c3cccc4ccccc34)c(F)cc12` [Compound 29], the Kd in assay [1] was more than 5000 nM. In addition, on Ba/F3_KRAS^G12D cells, the GI50 was 500 to 5000 nM.
The corresponding values for `Nc1cccc(F)c1-c1nc2cc(OCC34CCCN3CCC4)nc(N3CC4CCC(C3)N4)c2cc1Cl` [Compound 37] are more than 5000 nM and more than 5000 nM.
Taken in the same sequence, the figures for `CCc1cccc2cc(O)cc(-c3nc(OC)c4c(N5CC6CCC(C5)N6)nc(OC[C@@]56CCCN5C[C@H](F)C6)nc4c3F)c12` [Compound 125] were not above 500 nM and less than 500 nM.
The corresponding values for `C#Cc1c(F)ccc2cc(O)cc(-c3nc(OC)c4c(N5CC6CCC(C5)N6)nc(OC[C@@]56CCCN5C[C@H](F)C6)nc4c3F)c12` [Compound 135] are not above 500 nM and less than 500 nM.
Regarding `C#Cc1c(F)ccc2cc(O)cc(-c3cc4nc(OC[C@@]56CCCN5C[C@H](F)C6)nc(N5CC6CCC(C5)N6)c4c(C)n3)c12` [Compound 131], the Kd in assay [1] is not above 500 nM. The GI50 on Ba/F3_KRAS^G12D cells is less than 500 nM.
The corresponding values for `C[C@H]1CNCCN1c1nc(OCCN(C)C)c(-c2cccnc2C2CC2)c2nc(-c3ccccc3F)c(F)cc12` [Compound 1] are more than 5000 nM and 500 to 5000 nM.
Taken in the same sequence, the figures for `Oc1cc(-c2nc(Cl)c3c(N4CC5CCC(C4)N5)nc(OC[C@@]45CCCN4C[C@H](F)C5)nc3c2F)c2c(Cl)cccc2c1` [Compound 114] were not above 500 nM and less than 500 nM.
The corresponding values for `c1ccc2c(-c3ncc4c(N5CC6CCC(C5)N6)cc(OCC56CCCN5CCC6)nc4n3)cccc2c1` [Compound 66] are more than 5000 nM and 500 to 5000 nM.
Turning to `Cc1nc(-c2cc(O)cc3cccc(Cl)c23)c(Cl)c2nc(OC[C@@]34CCCN3C[C@H](F)C4)nc(N3CC4CCC(C3)N4)c12` [Compound 130], the Kd in assay [1] is not above 500 nM. For the same molecule, the GI50 on Ba/F3_KRAS^G12D cells is less than 500 nM.
Taken in the same sequence, the figures for `CCc1c(F)ccc2cc(O)cc(-c3nc(Cl)c4c(N5CC6CCC(C5)N6)nc(OC[C@@]56CCCN5C[C@H](F)C6)nc4c3F)c12` [Compound 138] were not above 500 nM and less than 500 nM.
The corresponding values for `Cc1nc(-c2cc(O)cc3cccc(Cl)c23)c(F)c2nc(OC[C@@]34CCCN3C[C@H](F)C4)nc(N3CC4CCC(C3)N4)c12` [Compound 89] are not above 500 nM and less than 500 nM.
The corresponding values for `C#Cc1c(F)ccc2cc(O)cc(-c3nc(C)c4c(N5CC6CCC(C5)N6)nc(OC[C@@]56CCCN5C[C@H](F)C6)nc4c3Cl)c12` [Compound 134] are not above 500 nM and less than 500 nM.
Turning to `CN(C)CCOc1nc(N2CC3CCC(C2)N3)c2cc(F)c(-c3ccccc3F)nc2c1-c1cccnc1C1CC1` [Compound 27], the Kd in assay [1] was more than 5000 nM. Further, the GI50 on Ba/F3_KRAS^G12D cells was 500 to 5000 nM.
The corresponding values for `Oc1cc(-c2ncc3c(N4CC5CCC(C4)N5)cc(OC[C@@]45CCCN4C[C@H](F)C5)nc3c2F)c2c(Cl)cccc2c1` [Compound 78] are not above 500 nM and 500 to 5000 nM.
The corresponding values for `Fc1cc2c(N3CC4CCC(C3)N4)nc(OCC34CCCN3CCC4)cc2nc1-c1cccc2ccccc12` [Compound 14] are more than 5000 nM and 500 to 5000 nM.
Take `CN(C)CCCOc1nc(N2CC3CCC(C2)N3)c2cnc(-c3cccc4ccccc34)nc2c1Cl` [Compound 25]: the Kd in assay [1] was more than 5000 nM. On Ba/F3_KRAS^G12D cells, the GI50 is 500 to 5000 nM.
As for `Oc1cc(-c2ncc3c(N4CC5CCC(C4)N5)nc(OC[C@@]45CCCN4C[C@H](F)C5)c(Cl)c3n2)c2c(Cl)c(F)ccc2c1` [Compound 75], the Kd in assay [1] was not above 500 nM. The GI50 at Ba/F3_KRAS^G12D cells is more than 5000 nM.
Regarding `C#Cc1c(F)ccc2cc(O)cc(-c3nc(C)c4c(N5CC6CCC(C5)N6)nc(OC[C@@]56CCCN5C[C@H](F)C6)nc4c3F)c12` [Compound 128], the Kd in assay [1] was not above 500 nM. On Ba/F3_KRAS^G12D cells, the GI50 is less than 500 nM.
Regarding `N#Cc1c(-c2cccc3cccc(Cl)c23)nc(OCC23CCCN2CCC3)c2ccc(N3CCNCC3)nc12` [Compound 98], the Kd in assay [1] was more than 5000 nM. The GI50 on Ba/F3_KRAS^G12D cells was 500 to 5000 nM.
As to `Oc1cc(-c2ncc3c(N4CC5(CCCN5)C4)nc(OC[C@@]45CCCN4C[C@H](F)C5)nc3c2F)c2c(Cl)cccc2c1` [Compound 97], the Kd in assay [1] is more than 5000 nM. Further, the GI50 on Ba/F3_KRAS^G12D cells was more than 5000 nM.
In the case of `CCOc1c(F)ccc2cc(O)cc(-c3nc(OC)c4c(N5CC6CCC(C5)N6)nc(OC[C@@]56CCCN5C[C@H](F)C6)nc4c3F)c12` [Compound 148], the Kd in assay [1] was not above 500 nM. The GI50 on Ba/F3_KRAS^G12D cells is less than 500 nM.
The corresponding values for `CCc1c(F)ccc2cc(O)cc(-c3nc(C(F)F)c4c(N5CC6CCC(C5)N6)nc(OC[C@@]56CCCN5C[C@H](F)C6)nc4c3F)c12` [Compound 166] are not above 500 nM and less than 500 nM.
For `CCc1cccc2cc(O)cc(-c3nc(C)c4c(N5CC6CCC(C5)N6)nc(OC[C@@]56CCCN5C[C@H](F)C6)nc4c3C)c12` [Compound 117], the Kd in assay [1] was not above 500 nM. For the same molecule, the GI50 on Ba/F3_KRAS^G12D cells was less than 500 nM.
Taken in the same sequence, the figures for `Cc1nc(-c2cc(O)cc3ccccc23)c(F)c2nc(OC[C@@]34CCCN3C[C@H](F)C4)nc(N3CC4CCC(C3)N4)c12` [Compound 81] were not above 500 nM and less than 500 nM.
In the case of `C#Cc1c(F)ccc2cc(O)cc(-c3nc(Cl)c4c(N5CC6CCC(C5)N6)nc(OC[C@@H]5CCCN5C)nc4c3F)c12` [Compound 159], the Kd in assay [1] was not above 500 nM. Besides, the GI50 at Ba/F3_KRAS^G12D cells was less than 500 nM.
As to `CN(C)CCOc1nc(N2C3CCC2CNC3)c2cc(F)c(-c3ccccc3F)nc2c1-c1cccnc1C1CC1` [Compound 20], the Kd in assay [1] was more than 5000 nM. In addition, the GI50 at Ba/F3_KRAS^G12D cells lay in the range of 500 to 5000 nM.
With `CCN1CCN(c2nc(OCC34CCCN3CCC4)nc3c(F)c(-c4cc(O)cc5cccc(Cl)c45)ncc23)CC1` [Compound 42], the Kd in assay [1] was more than 5000 nM. The GI50 at Ba/F3_KRAS^G12D cells fell in the range of 500 to 5000 nM.
In the case of `Oc1cc(-c2nc3cc(OCC45CCCN4CCC5)nc(N4CC5CCC(C4)N5)c3cc2Cl)c2c(Cl)cccc2c1` [Compound 34], the Kd in assay [1] is more than 5000 nM. For the same molecule, the GI50 at Ba/F3_KRAS^G12D cells is more than 5000 nM.
As to `Fc1ccccc1-c1nc2c(-c3cccnc3C3CC3)c(OCC34CCCN3CCC4)nc(N3CC4CCC(C3)N4)c2cc1F` [Compound 28], in assay [1], the Kd was more than 5000 nM. On Ba/F3_KRAS^G12D cells, the GI50 was 500 to 5000 nM.
Regarding `CN1CCC[C@H]1COc1nc(N2CCNCC2)c2cnc(-c3ccc(F)c4sc(N)nc34)c(F)c2n1` [Compound 73], the Kd in assay [1] is not above 500 nM. In addition, the GI50 at Ba/F3_KRAS^G12D cells is more than 5000 nM.
Taken in the same sequence, the figures for `CN1CCC[C@H]1Cn1c(=O)nc(N2CC3CCC(C2)N3)c2cnc(-c3cc(O)cc4cccc(Cl)c34)c(F)c21` [Compound 44] were more than 5000 nM and more than 5000 nM.
For the molecule `Oc1cc(-c2cc3nc(OC[C@@]45CCCN4C[C@H](F)C5)nc(N4CC5CCC(C4)N5)c3nn2)c2c(Cl)cccc2c1` [Compound 94], in assay [1], the Kd is not above 500 nM. Further, the GI50 on Ba/F3_KRAS^G12D cells was in the range of 500 to 5000 nM.
Taken in the same sequence, the figures for `Nc1nc2c(-c3ncc4c(N5CC6CCC(C5)N6)nc(OC[C@@]56CCCN5C[C@H](F)C6)nc4c3F)ccc(F)c2s1` [Compound 68] were not above 500 nM and more than 5000 nM.
Taken in the same sequence, the figures for `CN1CCC[C@H]1COc1nc(N2CC3CCC(C2)N3)c2[nH]c(=O)c(-c3cc(O)cc4ccccc34)cc2n1` [Compound 92] were 500 to 5000 nM and more than 5000 nM.
With `CCc1cccc2cc(O)cc(-c3cc4nc(OC[C@@]56CCCN5C[C@H](F)C6)nc(N5CC6CCC(C5)N6)c4c(C)n3)c12` [Compound 121], the Kd in assay [1] was not above 500 nM. Further, on Ba/F3_KRAS^G12D cells, the GI50 fell in the range of 500 to 5000 nM.
For `CN(C)CCCOc1nc(N2CC3CCC(C2)N3)c2cc(Cl)c(-c3cccc4ccccc34)nc2n1` [Compound 4], the Kd in assay [1] was more than 5000 nM. Besides, the GI50 at Ba/F3_KRAS^G12D cells was more than 5000 nM.

As usually defined, the Kd is the constant that tells how readily two partners part at equilibrium.

These data come from US20230357233A1, “HETEROARYL COMPOUNDS, PREPARATION METHODS AND USES THEREOF” (INVENTISBIO CO., LTD., priority 2020, published 2023).
